Source: patent publication US20200338028A1, “BENZENESULFONAMIDE DERIVATIVES AND METHOD FOR MODULATING LIPID RAFT” (Gongwin Biopharm Co., Ltd., priority 2017, published 2020)
Peptide text beside a SMILES is read from it. * marks the point of attachment. Cbz = O=C(OCc1ccccc1)*; CH2F = FC*

How the values were obtained:
Type in all cases: cell-based, human
[1] = test system: PC-3 cells; test: PTS-induced apoptosis with Z-VAD-FMK (PI staining and nucleosomal DNA fragmentation assay); conditions: PC-3, 24 hours, FIG. 2E and 2F
Experimental: Flow cytometric analysis was performed as follows. Cells were harvested by trypsinization, fixed with 70% (v/v) alcohol at 4° C. for 30 min and washed with PBS. After centrifugation, the cells were incubated in phosphate-citric acid buffer (0.2 mol/l NaHPO4, 0.1 mol/l citric acid, pH 7.8) for 30 min at room temperature. The cells were then centrifuged and resuspended with 0.5 ml propidium iodide (PI) solution containing Triton X-100 (0.1% v/v), RNase (100 μg/ml) and PI (80 μg/ml). DNA content was analyzed with the FACScan and CellQuest software (Becton Dickinson, Mountain View, Calif., United States).
The DNA fragmentation was determined for cell death determination by use of the Cell Death Detection ELISAplus kit (Roche, Mannheim, Germany) The assay was based on the quantitative in vitro determination of cytoplasmic histone-associated DNA fragments (mono- and oligonucleosomes) after induced cell death. After the treatment with the compound, the cells were lysed and centrifuged, and the supernatant was used for the detection of nucleosomal DNA according to the manufacturer's protocol.

[2] = test system: PC-3 cells; test: colony formation (clonogenic) assay; conditions: PC-3, PTS 1.5 mM, 10 days, FIG. 6E
Experimental: To assay the anchorage-dependent clonogenic effect, each individual PC-3 and DU-145 cells (150 cells/well) were seeded in a 6-well plate. After a 10-day treatment with p-TSA, the cell colonies were rinsed with phosphate-buffered saline (PBS), stained with 0.4% (w/v) crystal violet dissolved in 20% methanol, and lysed by 50 mM sodium citrate dissolved in 50% ethanol. The absorbance was read at a wavelength of 595 nm.
To further substantiate the role of Akt, the Myr-Akt overexpressed PC-3 cells were prepared with the method shown as follows. The plasmid encoding Myr-Akt, an N-terminally myristoylation signal-attached Akt, was a gift from Professor Mien-Chie Hung (The University of Texas, M.D. Anderson Cancer Center). For transfection, PC-3 cells were seeded into 60-mm tissue culture dishes with 30% confluence and grown for 24 h to 50-60% confluence. Each dish was washed with serum-free Opti-MEM (Life Technologies), and 2 ml of the serum-free Opti-MEM was then added. Aliquots containing Myr-Akt expression vector or a control plasmid in serum-free Opti-MEM were transfected into cells using Lipofectamine 2000 (Invitrogen) following the manufacturer's instructions. After incubation for 6 h at 37° C., cells were washed with serum-free Opti-MEM and incubated in 10% FBS-containing RPMI-1640 medium for 48 h. The cells were treated with or without p-TSA and then the related analyses were performed. […] Furthermore, the functional rescue of Myr-Akt was determined. […] However, overexpression of Myr-Akt had minimal effect on p-TSA-induced cyclin D1 down-regulation.

[3] = test system: DU-145 cells; test: Western blot of Bcl-2 family members, cell cycle regulators and Akt/mTOR/p70S6K pathway signals
Experimental: (§1) In addition, protein expression assay of each Mcl-1, Bcl-2, Bid, PUMA and Bak was performed by western blotting with methods described as follows. After treatment of PC-3 and DU145 cells with p-TSA, the cells were harvested with trypsinization, centrifuged and lysed in 0.1 ml of lysis buffer containing 10 mM Tris-HCl (pH 7.4), 150 mM NaCl, 1 mM EGTA, 1% Triton X-100, 1 mM PMSF, 10 μg/ml leupeptin, 10 μg/ml aprotinin, 50 mM NaF and 100 μM sodium orthovanadate. Total protein was quantified, mixed with the sample buffer and boiled at 90° C. for 5 min. Equal amount of protein (30 μg) was separated by electrophoresis in 8% or 12% SDS-PAGE, transferred to PVDF membranes and detected with specific antibodies (1:1000 dilution) for each of Mcl-1, Bcl-2, Bid, PUMA and Bak proteins. The immunoreactive proteins after incubation with appropriately labeled secondary antibody (1:3000 dilution) were detected with an enhanced chemiluminescence detection kit (Amersham, Buckinghamshire, United Kingdom). […] These effects were correlated with the mitochondrial stress.
(§2) During G1 phase, cells grow in size and synthesize mRNA and proteins which are necessary to DNA synthesis. The serine/threonine kinases mTOR and p70S6K that regulate protein synthesis (mRNA translation) through affecting the phosphorylation or activities of several downstream translation factors are critical regulators in G1 phase. Protein expression assay of each Akt, mTOR 4E-BP1 and p70S6K was performed by Western blotting.

[4] = test system: PC-3 cells; test: as above; conditions: PC-3, 1 h, FIGS. 6A to 6D
Experimental: as §1, §2

[5] = particularly in DU-145 cells, 1 h

Compound | effect of Z-VAD-FMK on PTS-induced apoptosis [1] | effect of cholesterol on PTS-induced inhibition of cell growth, colony formation assay [2] | effect of cholesterol supplement on p-TSA-induced decrease of Akt and p70S6K phosphorylation ([3]; DU-145, 1 h, FIGS. 6A to 6D) | Akt phosphorylation, cholesterol by itself [3, 5] | cyclin D1 protein expression, cholesterol by itself [3, 5] | effect of cholesterol supplement on p-TSA-induced decrease of Akt and p70S6K phosphorylation [4]
COC(=O)C[C@H](NC(=O)[C@H](C)NC(=O)[C@@H](NC(=O)OCc1ccccc1)C(C)C)C(=O)CF [Z-VAD-FMK] (Cbz-Val-Ala-Asp(OMe)-CH2F) | profoundly inhibited PTS-induced apoptosis | – | – | – | – | –
CC(C)CCC[C@@H](C)[C@H]1CC[C@H]2[C@@H]3CC=C4C[C@@H](O)CC[C@]4(C)[C@H]3CC[C@]12C [cholesterol, reference compound] | – | significantly rescued PTS-induced inhibition of cell growth | significantly rescued | increase | decrease | significantly rescued
